The results in this text go back to US7820623B2 (priority 2006, dated 2010).

Like-named read-outs stand apart in the source and are kept apart here. Bridge positions count the residues as written; N and C are the ends. Peptide text beside a SMILES is read from it.

Assay [1] deals with thapsigargin-induced IL-2 production in human whole blood.
For a further assay, the target named is human Kv1.3 (Homo sapiens, UniProt P22001). It is filed as cell-based. Set-up: expressed in transfected cells.
The test system of assay [2] is thapsigargin-induced IFN-g production in human whole blood. It is filed as cell-based.
[3] abbreviates: read-out: Analogue Activity (IC50) WB/IL-2.
Where [4] appears, read: read-out: Analogue Activity (IC50) WB/IFNg.

human Kv1.3, sequence (P22001 whole entry): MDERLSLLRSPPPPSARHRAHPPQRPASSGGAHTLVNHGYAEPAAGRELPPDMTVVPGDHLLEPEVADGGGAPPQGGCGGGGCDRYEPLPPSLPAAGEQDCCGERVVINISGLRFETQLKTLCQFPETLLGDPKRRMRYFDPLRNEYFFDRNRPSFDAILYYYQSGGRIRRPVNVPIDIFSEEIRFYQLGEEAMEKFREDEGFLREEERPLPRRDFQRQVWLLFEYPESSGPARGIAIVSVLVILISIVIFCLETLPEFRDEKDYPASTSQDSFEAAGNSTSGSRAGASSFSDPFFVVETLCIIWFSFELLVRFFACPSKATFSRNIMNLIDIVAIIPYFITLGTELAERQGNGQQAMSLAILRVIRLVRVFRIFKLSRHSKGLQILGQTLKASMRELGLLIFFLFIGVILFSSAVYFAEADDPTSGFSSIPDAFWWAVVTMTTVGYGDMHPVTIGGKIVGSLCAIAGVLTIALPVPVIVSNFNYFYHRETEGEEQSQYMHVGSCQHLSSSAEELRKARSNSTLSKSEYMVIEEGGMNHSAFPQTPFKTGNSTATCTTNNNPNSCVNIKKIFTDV

On to `CC[C@H](C)[C@@H]1NC(=O)[C@H](CCCCN)NC(=O)[C@@H](NC(=O)[C@H](CCCCN)NC(=O)[C@@H](NC(=O)[C@H](CC(N)=O)NC(=O)[C@@H](NC(=O)[C@@H](NC(=O)[C@@H](NC(=O)CN)C(C)C)[C@@H](C)CC)[C@@H](C)CC)C(C)C)CSSC[C@@H]2NC(=O)[C@H](CCCCN)NC(=O)CNC(=O)[C@H](Cc3ccccc3)NC(=O)[C@H](CCCNC(=N)N)NC(=O)[C@H](CCSC)NC(=O)CNC(=O)[C@H](C)NC(=O)[C@H](CCCCN)NC(=O)[C@H](CCCCN)NC(=O)[C@@H]3CSSC[C@@H](C(=O)N[C@H](C(=O)N4CCC[C@H]4C(=O)N[C@@H](CCCCN)C(=O)O)[C@@H](C)O)NC(=O)[C@H](C)NC(=O)[C@H](CSSC[C@H](NC(=O)[C@H](CCC(N)=O)NC(=O)[C@H](CCCNC(=N)N)NC(=O)[C@H](CO)NC1=O)C(=O)N[C@@H](CC(C)C)C(=O)N[C@@H](CCC(=O)O)C(=O)N1CCC[C@H]1C(=O)N3)NC(=O)[C@H](CCCCN)NC(=O)CNC(=O)[C@H](CC(N)=O)NC(=O)[C@H](CCSC)NC2=O` [H34A] (H-GVIINVKCKISRQCLEPCKKAGMRFGKCMNGKCACTPK-OH; disulfide 8-28, 14-33, 18-35), for which the IC50 in assay [1] (setting [3]) was 72.5 pM; in assay [2] (setting [4]), 57.3 pM. The “Kv1.3 Selectivity (= Kv1.1/Kv.3 IC50)” value on human Kv1.3 was 797.
Turning to `CC[C@H](C)[C@@H]1NC(=O)[C@H](CCCCN)NC(=O)[C@@H](NC(=O)[C@H](CCCCN)NC(=O)[C@@H](NC(=O)[C@H](CC(N)=O)NC(=O)[C@@H](NC(=O)[C@@H](NC(=O)[C@@H](NC(=O)CN)C(C)C)[C@@H](C)CC)[C@@H](C)CC)C(C)C)CSSC[C@@H]2NC(=O)[C@H](CCCCN)NC(=O)CNC(=O)[C@H](Cc3ccccc3)NC(=O)[C@H](CCCNC(=N)N)NC(=O)[C@H](CCSC)NC(=O)CNC(=O)[C@H](C)NC(=O)[C@H](CCCCN)NC(=O)[C@H](CCCCN)NC(=O)[C@@H]3CSSC[C@@H](C(=O)N[C@H](C(=O)N4CCC[C@H]4C(=O)N[C@@H](CCCCN)C(=O)O)[C@@H](C)O)NC(=O)[C@H](Cc4c[nH]cn4)NC(=O)[C@H](CSSC[C@H](NC(=O)[C@H](CCC(N)=O)NC(=O)[C@H](CCCNC(=N)N)NC(=O)[C@H](CO)NC1=O)C(=O)N[C@@H](CC(C)C)C(=O)N[C@@H](CCC(=O)O)C(=O)N1CCC[C@H]1C(=O)N3)NC(=O)[C@H](CCCCN)NC(=O)CNC(=O)[C@H](CC(N)=O)NC(=O)[C@H](CCCNC(=N)N)NC2=O` [M29R] (H-GVIINVKCKISRQCLEPCKKAGMRFGKCRNGKCHCTPK-OH; disulfide 8-28, 14-33, 18-35), the IC50 in assay [1] (setting [3]) was 11700 pM; in assay [2] (setting [4]), 7680 pM. Also, the “Kv1.3 Selectivity (= Kv1.1/Kv.3 IC50)” value on human Kv1.3 is recorded as 30.
The matching figures for `CC[C@H](C)[C@@H]1NC(=O)[C@H](CCCCN)NC(=O)[C@@H](NC(=O)[C@H](CCCCN)NC(=O)[C@@H](NC(=O)[C@H](CC(N)=O)NC(=O)[C@@H](NC(=O)[C@@H](NC(=O)[C@@H](NC(=O)CN)C(C)C)[C@@H](C)CC)[C@@H](C)CC)C(C)C)CSSC[C@@H]2NC(=O)[C@H](CCCCN)NC(=O)CNC(=O)[C@H](Cc3ccccc3)NC(=O)[C@H](CCCNC(=N)N)NC(=O)[C@H](CCSC)NC(=O)CNC(=O)[C@H](C)NC(=O)[C@H](CCCCN)NC(=O)[C@H](CCCCN)NC(=O)[C@@H]3CSSC[C@@H](C(=O)N[C@@H](CCC(=O)O)C(=O)N4CCC[C@H]4C(=O)N[C@@H](CCCCN)C(=O)O)NC(=O)[C@H](Cc4c[nH]cn4)NC(=O)[C@H](CSSC[C@H](NC(=O)[C@H](CCC(N)=O)NC(=O)[C@H](CCCNC(=N)N)NC(=O)[C@H](CO)NC1=O)C(=O)N[C@@H](CC(C)C)C(=O)N[C@@H](CCC(=O)O)C(=O)N1CCC[C@H]1C(=O)N3)NC(=O)[C@H](CCCCN)NC(=O)CNC(=O)[C@H](CC(N)=O)NC(=O)[C@H](CCSC)NC2=O` [T36E] (H-GVIINVKCKISRQCLEPCKKAGMRFGKCMNGKCHCEPK-OH; disulfide 8-28, 14-33, 18-35): 1740 pM, 2420 pM and 44.
Turning to `CC[C@H](C)[C@@H]1NC(=O)[C@H](CCCCN)NC(=O)[C@@H](NC(=O)[C@H](CCCCN)NC(=O)[C@@H](NC(=O)[C@H](CC(N)=O)NC(=O)[C@@H](NC(=O)[C@@H](NC(=O)[C@@H](NC(=O)CN)C(C)C)[C@@H](C)CC)[C@@H](C)CC)C(C)C)CSSC[C@@H]2NC(=O)[C@H](CCCCN)NC(=O)CNC(=O)[C@H](Cc3ccccc3)NC(=O)[C@H](CCCNC(=N)N)NC(=O)[C@H](CCSC)NC(=O)CNC(=O)[C@H](C)NC(=O)[C@H](CCCCN)NC(=O)[C@H](CCCCN)NC(=O)[C@@H]3CSSC[C@@H](C(=O)N[C@H](C(=O)N[C@@H](CCC(=O)O)C(=O)N[C@@H](CCCCN)C(=O)O)[C@@H](C)O)NC(=O)[C@H](Cc4c[nH]cn4)NC(=O)[C@H](CSSC[C@H](NC(=O)[C@H](CCC(N)=O)NC(=O)[C@H](CCCNC(=N)N)NC(=O)[C@H](CO)NC1=O)C(=O)N[C@@H](CC(C)C)C(=O)N[C@@H](CCC(=O)O)C(=O)N1CCC[C@H]1C(=O)N3)NC(=O)[C@H](CCCCN)NC(=O)CNC(=O)[C@H](CC(N)=O)NC(=O)[C@H](CCSC)NC2=O` [P37E] (H-GVIINVKCKISRQCLEPCKKAGMRFGKCMNGKCHCTEK-OH; disulfide 8-28, 14-33, 18-35), the figures for the IC50 in assay [1] (setting [3]) and in assay [2] (setting [4]) were 239 pM and 1600 pM, respectively. Also, the “Kv1.3 Selectivity (= Kv1.1/Kv.3 IC50)” value on human Kv1.3 stood at 65.
`CC[C@H](C)[C@@H]1NC(=O)[C@H](CCCCN)NC(=O)[C@@H](NC(=O)[C@H](CCCCN)NC(=O)[C@@H](NC(=O)[C@H](CC(N)=O)NC(=O)[C@@H](NC(=O)[C@@H](NC(=O)[C@@H](NC(=O)CN)C(C)C)[C@@H](C)CC)[C@@H](C)CC)C(C)C)CSSC[C@@H]2NC(=O)[C@H](CCCCN)NC(=O)CNC(=O)[C@H](Cc3ccccc3)NC(=O)[C@H](CCCNC(=N)N)NC(=O)[C@H](CCSC)NC(=O)CNC(=O)[C@H](C)NC(=O)[C@H](CCCCN)NC(=O)[C@H](CCCCN)NC(=O)[C@@H]3CSSC[C@@H](C(=O)N[C@H](C(=O)N4CCC[C@H]4C(=O)N[C@@H](CCCCN)C(=O)O)[C@@H](C)O)NC(=O)[C@H](Cc4c[nH]cn4)NC(=O)[C@H](CSSC[C@H](NC(=O)[C@H](CCC(N)=O)NC(=O)[C@H](CCCNC(=N)N)NC(=O)[C@H](CO)NC1=O)C(=O)N[C@@H](CC(C)C)C(=O)N[C@@H](CCC(=O)O)C(=O)N1CCC[C@H]1C(=O)N3)NC(=O)[C@H](CCCCN)NC(=O)CNC(=O)[C@H](CC(N)=O)NC(=O)[C@H](C)NC2=O` [M29A] (H-GVIINVKCKISRQCLEPCKKAGMRFGKCANGKCHCTPK-OH; disulfide 8-28, 14-33, 18-35): the values for the IC50 (in assay [1] (setting [3]); at human Kv1.3 (read-out: Kv1.3 (IC50)); in assay [2] (setting [4])) were 447 pM, 33 pM and 292 pM, respectively. Also, the “Kv1.3 Selectivity (= Kv1.1/Kv.3 IC50)” value on human Kv1.3 is 105.
For `CC[C@H](C)[C@@H]1NC(=O)[C@H](CCCCN)NC(=O)[C@@H](NC(=O)[C@H](CCCCN)NC(=O)[C@@H](NC(=O)[C@H](CC(N)=O)NC(=O)[C@H](CCCNC(=N)N)NC(=O)[C@@H](NC(=O)[C@@H](NC(=O)CN)C(C)C)[C@@H](C)CC)C(C)C)CSSC[C@@H]2NC(=O)[C@H](CCCCN)NC(=O)CNC(=O)[C@H](Cc3ccccc3)NC(=O)[C@H](CCCNC(=N)N)NC(=O)[C@H](CCSC)NC(=O)CNC(=O)[C@H](C)NC(=O)[C@H](CCCCN)NC(=O)[C@H](CCCCN)NC(=O)[C@@H]3CSSC[C@@H](C(=O)N[C@H](C(=O)N4CCC[C@H]4C(=O)N[C@@H](CCCCN)C(=O)O)[C@@H](C)O)NC(=O)[C@H](Cc4c[nH]cn4)NC(=O)[C@H](CSSC[C@H](NC(=O)[C@H](CCC(N)=O)NC(=O)[C@H](CCCNC(=N)N)NC(=O)[C@H](CO)NC1=O)C(=O)N[C@@H](CC(C)C)C(=O)N[C@@H](CCC(=O)O)C(=O)N1CCC[C@H]1C(=O)N3)NC(=O)[C@H](CCCCN)NC(=O)CNC(=O)[C@H](CC(N)=O)NC(=O)[C@H](CCSC)NC2=O` [I4R] (H-GVIRNVKCKISRQCLEPCKKAGMRFGKCMNGKCHCTPK-OH; disulfide 8-28, 14-33, 18-35), the IC50 in assay [1] (setting [3]) turned out to be 168 pM; in assay [2] (setting [4]) it was 175 pM.

B1: FcLoop-G4-OSK-G2 (protein)
chain: MDKTHTCPPCPAPELLGGPSVFLFPPKPKDTLMISRTPEVTCVVVDVSHEDPEVKFNWYVDGVEVHNAKTKPREEQYNSTYRVVSVLTVLHQDWLNGKEYKCKVSNKALPAPIEKTISKAKGQPREPQVYTLPPSRDELGGGGGVIINVKCKISRQCLEPCKKAGMRFGKCMNGKCHCTPKGGTKNQVSLTCLVKGFYPSDIAVEWESNGQPENNYKTTPPVLDSDGSFFLYSKLTVDKSRWQQGNVFSCSVMHEALHNHYTQKSLSLSPGK
In the case of B1, the IC50 in assay [1] (read-out: WB/IL-2 (IC50)) is 150 pM; in assay [2] (read-out: WB/IFNg (IC50)), 195 pM.

B2: FcLoop-G2-ShK-G2 (protein)
chain: MDKTHTCPPCPAPELLGGPSVFLFPPKPKDTLMISRTPEVTCVVVDVSHEDPEVKFNWYVDGVEVHNAKTKPREEQYNSTYRVVSVLTVLHQDWLNGKEYKCKVSNKALPAPIEKTISKAKGQPREPQVYTLPPSRDELGGRSCIDTIPKSRCTAFQCKHSMKYRLSFCRKTCGTCGGTKNQVSLTCLVKGFYPSDIAVEWESNGQPENNYKTTPPVLDSDGSFFLYSKLTVDKSRWQQGNVFSCSVMHEALHNHYTQKSLSLSPGK
Consider B2, for which the IC50 is 109 pM in assay [1] (read-out: WB/IL-2 (IC50)) and 119 pM in assay [2] (read-out: WB/IFNg (IC50)).

B3: FcLoop-G2-OSK-G2 (protein)
chain: MDKTHTCPPCPAPELLGGPSVFLFPPKPKDTLMISRTPEVTCVVVDVSHEDPEVKFNWYVDGVEVHNAKTKPREEQYNSTYRVVSVLTVLHQDWLNGKEYKCKVSNKALPAPIEKTISKAKGQPREPQVYTLPPSRDELGGGVIINVKCKISRQCLEPCKKAGMRFGKCMNGKCHCTPKGGTKNQVSLTCLVKGFYPSDIAVEWESNGQPENNYKTTPPVLDSDGSFFLYSKLTVDKSRWQQGNVFSCSVMHEALHNHYTQKSLSLSPGK
For B3, the figures for the IC50 in assay [1] (read-out: WB/IL-2 (IC50)) and in assay [2] (read-out: WB/IFNg (IC50)) were 28 pM and 56 pM, respectively.

B4: 20k PEG-L2-6H-L3-CH2-L10-OsK1(1-38) (conjugate)
chain: MGGHHHHHHGGGPSVFLFPPKPKDTLMISRTPEVTCVVVDVSHEDPEVKFNWYVDGVEVHNAKTKPREEQYNSTYRVVSVLTVLHQDWLNGKEYKCKVSNKALPAPIEKTISGGGGSGGGGSGVIINVKCKISRQCLEPCKKAGMRFGKCMNGKCHCTPK
For the molecule B4, the IC50 in assay [1] (read-out: WB/IL-2 (IC50)) amounted to 8320 pM; in assay [2] (read-out: WB/IFNg (IC50)) it was 50100 pM.
